The values below come from ChEMBL document CHEMBL3272135, “Quantitative relationships between steroid structure and binding to putative progesterone receptors” (J Med Chem, 1977).

Assay [1] addresses T1, Progesterone receptor (Ovis aries) (UniProt Q28590).
T1 sequence (whole entry): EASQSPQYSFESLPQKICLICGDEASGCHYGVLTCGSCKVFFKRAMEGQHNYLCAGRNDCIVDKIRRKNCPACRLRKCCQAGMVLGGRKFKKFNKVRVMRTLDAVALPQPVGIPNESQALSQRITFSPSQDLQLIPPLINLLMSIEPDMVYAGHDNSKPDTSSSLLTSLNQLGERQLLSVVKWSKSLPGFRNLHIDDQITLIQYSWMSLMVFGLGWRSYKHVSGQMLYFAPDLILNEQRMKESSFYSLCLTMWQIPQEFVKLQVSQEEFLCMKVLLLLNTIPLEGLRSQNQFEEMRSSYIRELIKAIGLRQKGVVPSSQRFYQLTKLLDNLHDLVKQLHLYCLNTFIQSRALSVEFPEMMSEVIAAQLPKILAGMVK
In words: Relative binding affinity to sheep progesterone receptor.

The target of assay [2] is T2, Progesterone receptor (Oryctolagus cuniculus) (UniProt P06186).
T2 sequence (whole entry): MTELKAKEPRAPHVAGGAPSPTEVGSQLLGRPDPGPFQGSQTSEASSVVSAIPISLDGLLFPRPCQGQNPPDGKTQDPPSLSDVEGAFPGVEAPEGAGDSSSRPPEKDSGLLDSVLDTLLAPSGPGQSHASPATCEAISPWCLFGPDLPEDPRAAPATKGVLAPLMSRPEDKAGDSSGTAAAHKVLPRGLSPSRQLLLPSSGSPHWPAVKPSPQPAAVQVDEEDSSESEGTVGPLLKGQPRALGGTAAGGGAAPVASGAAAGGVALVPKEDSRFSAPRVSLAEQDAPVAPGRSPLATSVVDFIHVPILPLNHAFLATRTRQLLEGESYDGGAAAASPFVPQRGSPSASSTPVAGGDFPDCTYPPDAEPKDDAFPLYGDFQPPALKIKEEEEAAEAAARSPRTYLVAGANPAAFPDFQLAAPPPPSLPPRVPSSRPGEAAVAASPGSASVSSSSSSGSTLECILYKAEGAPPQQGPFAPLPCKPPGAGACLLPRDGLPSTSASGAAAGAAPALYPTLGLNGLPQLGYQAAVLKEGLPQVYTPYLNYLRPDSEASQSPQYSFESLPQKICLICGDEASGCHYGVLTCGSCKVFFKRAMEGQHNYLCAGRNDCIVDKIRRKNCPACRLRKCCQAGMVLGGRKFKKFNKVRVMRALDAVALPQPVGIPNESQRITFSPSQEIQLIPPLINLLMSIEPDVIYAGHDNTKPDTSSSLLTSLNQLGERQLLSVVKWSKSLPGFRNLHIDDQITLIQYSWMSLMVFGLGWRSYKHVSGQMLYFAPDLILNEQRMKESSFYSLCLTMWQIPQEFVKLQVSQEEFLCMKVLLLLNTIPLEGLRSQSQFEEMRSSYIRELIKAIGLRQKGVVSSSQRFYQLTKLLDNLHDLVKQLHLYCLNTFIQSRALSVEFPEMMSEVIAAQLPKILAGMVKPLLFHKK
In words: Relative binding affinity to rabbit progesterone receptor.

The species entered for another assay is Cavia porcellus. In words: Relative binding affinity to guinea pig progesterone receptor.
In assay [3] the target is T3, Progesterone receptor (Homo sapiens) (UniProt P06401).
T3 sequence (whole entry): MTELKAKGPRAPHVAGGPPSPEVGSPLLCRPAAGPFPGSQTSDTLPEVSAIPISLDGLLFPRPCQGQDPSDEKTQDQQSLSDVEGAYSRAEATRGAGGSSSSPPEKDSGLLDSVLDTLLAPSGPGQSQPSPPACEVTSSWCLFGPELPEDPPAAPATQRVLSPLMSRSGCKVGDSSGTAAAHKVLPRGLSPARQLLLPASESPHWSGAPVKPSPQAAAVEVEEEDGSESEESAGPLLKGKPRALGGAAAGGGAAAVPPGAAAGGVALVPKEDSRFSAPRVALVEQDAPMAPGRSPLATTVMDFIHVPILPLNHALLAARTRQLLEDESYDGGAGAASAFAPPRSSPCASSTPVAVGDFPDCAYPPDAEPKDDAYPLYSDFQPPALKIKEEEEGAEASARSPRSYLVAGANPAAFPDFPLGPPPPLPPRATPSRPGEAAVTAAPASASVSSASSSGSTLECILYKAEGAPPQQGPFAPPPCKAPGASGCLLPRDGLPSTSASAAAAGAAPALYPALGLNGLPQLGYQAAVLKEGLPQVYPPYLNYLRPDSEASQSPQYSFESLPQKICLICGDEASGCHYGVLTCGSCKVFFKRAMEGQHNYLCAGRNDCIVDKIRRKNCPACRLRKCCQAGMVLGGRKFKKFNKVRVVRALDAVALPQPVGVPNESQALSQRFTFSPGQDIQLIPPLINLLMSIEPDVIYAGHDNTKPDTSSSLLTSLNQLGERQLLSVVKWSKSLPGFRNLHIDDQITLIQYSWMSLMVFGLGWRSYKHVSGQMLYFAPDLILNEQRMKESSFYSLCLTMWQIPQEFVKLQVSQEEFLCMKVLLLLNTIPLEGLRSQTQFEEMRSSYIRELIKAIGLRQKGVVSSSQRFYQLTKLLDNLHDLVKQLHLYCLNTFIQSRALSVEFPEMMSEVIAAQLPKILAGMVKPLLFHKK

Take `C#C[C@]1(OC(C)=O)CC[C@H]2[C@@H]3CCC4=CC(=O)CC[C@@H]4[C@H]3CC[C@@]21C`: the log(RBA) is 1.04 in assay [1], 2.05 in assay [2], 0.78 in the assay filed under Cavia porcellus and 1.32 in assay [3].
The matching figures for `CC(=O)O[C@]1(C(C)=O)CC[C@H]2[C@@H]3CCC4=CC(=O)CC[C@]4(C)[C@H]3CC[C@@]21C`: 1.6, 1.72, -0.7 and 1.83.
As for `C#C[C@]1(O)CC[C@H]2[C@@H]3CC[C@H]4CC(=O)CC[C@@H]4[C@H]3CC[C@@]21C`, the log(RBA) in assay [1] was 1; in assay [2] it was 1.23; in the assay filed under Cavia porcellus it was 0.3; in assay [3] it was 1.23.
As for `C#C[C@]1(O)CC[C@H]2[C@@H]3CCC4=CC(=O)CC[C@@H]4[C@H]3[C@@H](Cl)C[C@@]21C`, the log(RBA) in assay [1] came out at 2.06; in assay [2], 2.32; in the assay filed under Cavia porcellus, 1.48; in assay [3], 2.11.
